Some test systems named below: OVCAR-8; LOX IMVI; SNB-75; MDA-MB-231; NCI-H23; UACC-62; CCRF-CEM; HCT-116; ACHN; MOLT-4; SR; MCF7; SK-OV-3; KM12; Malme-3M; CAKI-1; T47D; A549; SK-MEL-2; NCI-H522.
What all share (experiment): NCI tumour cell line growth inhibition, 48 h

Molecules are shown by their SMILES.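 Grown in 96-well plates, cells were treated for 48 hours with each compound at five concentrations. Insufficient inhibition: endpoint recorded as highest concentration tested. At the GI50, growth is halved.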 Active and inactive are the calls of the source. Cut-off read from the data, not from the text of the source: active = GI50 up to about 1.1 µM and inactive = higher. Square brackets hold non-standard residues; d marks the D form. Peptide text beside a SMILES is read from it. * marks the point of attachment. Bn2Val = CC(C)[C@@H](C(=O)*)N(Cc1ccccc1)Cc1ccccc1; NH(3,4-diMeO-benzyl) = COc1ccc(CN*)cc1OC; NMeV = CN[C@H](C(=O)O)C(C)C; dNMeA = CN[C@H](C)C(=O)O

This note sets out measurements from ChEMBL document CHEMBL1201862, “PubChem BioAssay data set” (2004).

In the case of `Nc1nc(Cl)nc(NCc2ccccc2)n1`, the GI50 with OVCAR-8, in the assay on LOX IMVI, in the assay on SNB-75, with MDA-MB-231, with NCI-H23 and in the assay with UACC-62 was > 100 µM (inactive) throughout. The GI50 was > 100 µM (inactive) with CCRF-CEM; > 100 µM (inactive) with HCT-116; > 100 µM (inactive) in the assay with ACHN; > 100 µM (inactive) with MOLT-4; 67.8 µM (inactive) with SR; > 100 µM (inactive) with MCF7. Besides, the GI50 with SK-OV-3, in the assay on KM12, in the assay with Malme-3M, in the assay on CAKI-1, in the assay with T47D and in the assay on A549 was > 100 µM (inactive) each time. Besides, the GI50 in the assay with SK-MEL-2 was > 100 µM (inactive).

Turning to `Cn1cnc2c(sc3nc4ccccc4n32)c1=N`, the GI50 was 41.5 µM (inactive) in the assay on OVCAR-8; > 100 µM (inactive) in the assay on LOX IMVI; 11.2 µM (inactive) with SNB-75; > 100 µM (inactive) with MDA-MB-231; > 100 µM (inactive) in the assay on NCI-H23; > 100 µM (inactive) in the assay with UACC-62. For the same molecule, the GI50 in the assay on CCRF-CEM, in the assay with HCT-116, in the assay with ACHN, in the assay with MOLT-4, with MCF7 and in the assay on SK-OV-3 was > 100 µM (inactive) throughout. Moreover, the GI50 in the assay on Malme-3M, in the assay on CAKI-1, in the assay with T47D, with A549 and in the assay with SK-MEL-2 was > 100 µM (inactive) throughout.

In the case of `CN(C)CCN1C(=O)N(CCN(C)C)c2c3cc(O)ccc3nc3c([N+](=O)[O-])ccc1c23`, the GI50 with OVCAR-8 was 5.55 µM (inactive); in the assay with LOX IMVI, 10.7 µM (inactive); with SNB-75 it was 19.1 µM (inactive); in the assay on MDA-MB-231 it was 10.5 µM (inactive); in the assay with NCI-H23, 17.2 µM (inactive); with UACC-62, 15.9 µM (inactive). The GI50 in the assay on CCRF-CEM is 0.538 µM (active); in the assay on HCT-116 it was 5.58 µM (inactive); with ACHN it was 6.22 µM (inactive); in the assay on SR it was 0.245 µM (active); in the assay on NCI-H522, 16.6 µM (inactive); with KM12, 7.91 µM (inactive). Moreover, the GI50 was 15.8 µM (inactive) in the assay with Malme-3M; 13.1 µM (inactive) in the assay with CAKI-1; 18.4 µM (inactive) in the assay on T47D; 9.12 µM (inactive) in the assay on A549; 24.8 µM (inactive) in the assay on SK-MEL-2.

For `COC(=O)[C@H](CNC(=O)/C=C/c1ccc(OC(C)=O)c(OC(C)=O)c1)NC(=O)/C=C/c1ccc(OC(C)=O)c(OC(C)=O)c1`, the GI50 in the assay on OVCAR-8, with LOX IMVI, in the assay with SNB-75, in the assay on MDA-MB-231, in the assay on NCI-H23 and with UACC-62 was > 100 µM (inactive) throughout. Besides, the GI50 in the assay with CCRF-CEM was 39.3 µM (inactive); with HCT-116, > 100 µM (inactive); in the assay with ACHN it was > 100 µM (inactive); with MOLT-4, > 100 µM (inactive); in the assay with SR it was > 100 µM (inactive); in the assay with MCF7, > 100 µM (inactive). In addition, the GI50 in the assay with SK-OV-3 is > 100 µM (inactive); with KM12 it was > 100 µM (inactive); in the assay with Malme-3M, 16.4 µM (inactive); with CAKI-1, > 100 µM (inactive); in the assay on T47D, 44.4 µM (inactive); in the assay with A549 it was > 100 µM (inactive). Moreover, the GI50 in the assay on SK-MEL-2 is > 100 µM (inactive).

Turning to `COc1ccccc1C1(c2c(OC(C)C)c(=O)c2=O)SCCCS1`, the GI50 with OVCAR-8 was > 100 µM (inactive); in the assay with LOX IMVI it was > 100 µM (inactive); in the assay with SNB-75, 90.4 µM (inactive); in the assay on MDA-MB-231, > 100 µM (inactive); with NCI-H23, > 100 µM (inactive); in the assay with UACC-62 it was > 100 µM (inactive). Besides, the GI50 was 40.5 µM (inactive) in the assay on CCRF-CEM; > 100 µM (inactive) in the assay with HCT-116; > 100 µM (inactive) in the assay with ACHN; > 100 µM (inactive) in the assay on MOLT-4; > 100 µM (inactive) with MCF7; 65.9 µM (inactive) in the assay on NCI-H522. In addition, the GI50 with SK-OV-3, in the assay on KM12, in the assay on CAKI-1, in the assay on T47D, in the assay with A549 and in the assay with SK-MEL-2 was > 100 µM (inactive) each time.

On to `O=C1CC(NC(=O)C(F)(F)F)c2c(Br)sc(N3CCC(c4ccccc4)CC3)c21` (centres undefined), for which the GI50 in the assay on OVCAR-8 was 24.9 µM (inactive); in the assay on LOX IMVI, 7.85 µM (inactive); in the assay on SNB-75, 69.3 µM (inactive); in the assay on MDA-MB-231, 3.73 µM (inactive); with NCI-H23, 6.7 µM (inactive); with UACC-62, 20.4 µM (inactive). For the same molecule, the GI50 in the assay on CCRF-CEM was 4.05 µM (inactive); in the assay with HCT-116 it was 11.1 µM (inactive); with ACHN, 28.1 µM (inactive); in the assay with MOLT-4 it was 4.68 µM (inactive); with MCF7, 18.7 µM (inactive); with NCI-H522, 7.94 µM (inactive). The GI50 with SK-OV-3 was 64 µM (inactive); in the assay on KM12, > 100 µM (inactive); in the assay with Malme-3M, > 100 µM (inactive); with CAKI-1 it was 12.9 µM (inactive); in the assay with T47D it was 4.45 µM (inactive); with A549 it was 32.8 µM (inactive). Further, the GI50 in the assay on SK-MEL-2 was 0.973 µM (active).

Consider `CCCCCC(C)SC1(C(=O)OC)CC(OC(C)=O)C(NC(C)=O)C([C@H](OC(C)=O)[C@@H](COC(C)=O)OC(C)=O)O1` (some centres undefined), for which the GI50 with OVCAR-8 is 83.2 µM (inactive); in the assay on SNB-75, > 100 µM (inactive); with MDA-MB-231, 41.9 µM (inactive); in the assay on NCI-H23, > 100 µM (inactive); in the assay with HCT-116, 43.9 µM (inactive); with ACHN, > 100 µM (inactive). Besides, the GI50 is 27.3 µM (inactive) in the assay on MOLT-4; 64 µM (inactive) in the assay with SR; 43.7 µM (inactive) in the assay on MCF7; 51.2 µM (inactive) in the assay on NCI-H522; 66.7 µM (inactive) in the assay on KM12; 44.1 µM (inactive) in the assay with Malme-3M. Further, the GI50 in the assay with CAKI-1 is 93.3 µM (inactive); with T47D, 45.6 µM (inactive); in the assay with A549, 21.2 µM (inactive); in the assay on SK-MEL-2, 0.245 µM (active).

On to `CCc1cc(O)c(Cl)c(C)c1Cl`, for which the GI50 with OVCAR-8 was 18.2 µM (inactive); with LOX IMVI it was 15.9 µM (inactive); with SNB-75 it was 18.9 µM (inactive); in the assay on MDA-MB-231, 27 µM (inactive); with NCI-H23, 19 µM (inactive); in the assay on UACC-62, 15.1 µM (inactive). Further, the GI50 in the assay on CCRF-CEM was 18.2 µM (inactive); in the assay on HCT-116, 16.1 µM (inactive); in the assay on ACHN, 15.7 µM (inactive); in the assay with MCF7, 23.2 µM (inactive); with NCI-H522, 11.7 µM (inactive); with SK-OV-3, 18.3 µM (inactive). Further, the GI50 in the assay with KM12 was 15.2 µM (inactive); with Malme-3M, 19.4 µM (inactive); with CAKI-1, 17.3 µM (inactive); in the assay with T47D, 28.7 µM (inactive); in the assay with A549 it was 23.1 µM (inactive); in the assay on SK-MEL-2, 43.3 µM (inactive).

`c1ccc(C2=NN=C3C(c4ccccc4)=Nc4ccccc4N3C2)cc1`: the GI50 in the assay with OVCAR-8 was 10 µM (inactive); in the assay on LOX IMVI it was 10 µM (inactive); in the assay with MDA-MB-231 it was 38.9 µM (inactive); in the assay on NCI-H23, 47.3 µM (inactive); with UACC-62, 30.3 µM (inactive); in the assay with CCRF-CEM, 1.69 µM (inactive). The GI50 is 10.8 µM (inactive) with HCT-116; 34.4 µM (inactive) in the assay on ACHN; 3.87 µM (inactive) in the assay with MOLT-4; 20 µM (inactive) in the assay on MCF7; 3.84 µM (inactive) with NCI-H522; 53.1 µM (inactive) in the assay with SK-OV-3. The GI50 in the assay on KM12 is 29 µM (inactive); in the assay on Malme-3M, 26 µM (inactive); in the assay with CAKI-1, 43.7 µM (inactive); in the assay on T47D it was 36.7 µM (inactive); in the assay on A549 it was 30.6 µM (inactive); in the assay on SK-MEL-2, 23.5 µM (inactive).

As to `CC1=CCC(=O)[C@]2(C)C(CC(=O)O)[C@]3(C)C4=C(C)C(c5ccoc5)C[C@@H]4O[C@@H]3[C@H](O)[C@@H]12` (some centres undefined), the GI50 in the assay on OVCAR-8, in the assay on LOX IMVI, in the assay on SNB-75, with MDA-MB-231, with NCI-H23 and in the assay with UACC-62 was > 100 µM (inactive) each time. Further, the GI50 in the assay with CCRF-CEM, in the assay on HCT-116, with ACHN, in the assay with MOLT-4, in the assay on MCF7 and with NCI-H522 was > 100 µM (inactive) each time. In addition, the GI50 with SK-OV-3, in the assay on KM12, with Malme-3M, with CAKI-1, in the assay with T47D and in the assay on A549 was > 100 µM (inactive) each time. The GI50 in the assay with SK-MEL-2 is > 100 µM (inactive).

For `COc1ccc(CNC(=O)[C@@H](C)N(C)C(=O)[C@@H]2CCCN2C(=O)[C@H](C(C)C)N(C)C(=O)[C@@H](NC(=O)[C@H](C(C)C)N(Cc2ccccc2)Cc2ccccc2)C(C)C)cc1OC` (Bn2Val-V[NMeV]P[dNMeA]-{NH(3,4-diMeO-benzyl)}), the GI50 in the assay with OVCAR-8 was 14.1 µM (inactive); in the assay with LOX IMVI, 7.76 µM (inactive); with SNB-75 it was 6.43 µM (inactive); in the assay on MDA-MB-231, 8.15 µM (inactive); in the assay with NCI-H23, 10.5 µM (inactive); in the assay on UACC-62 it was 7.01 µM (inactive). In addition, the GI50 in the assay with CCRF-CEM is 2.23 µM (inactive); in the assay on HCT-116, 6.76 µM (inactive); in the assay on ACHN it was 6.97 µM (inactive); in the assay on MOLT-4 it was 4.05 µM (inactive); with MCF7, 4.33 µM (inactive); in the assay on NCI-H522 it was 3.19 µM (inactive). The GI50 is 12.8 µM (inactive) in the assay with SK-OV-3; 10.4 µM (inactive) in the assay with KM12; 8.67 µM (inactive) in the assay on Malme-3M; 11.4 µM (inactive) with CAKI-1; 7.43 µM (inactive) with T47D; 5.85 µM (inactive) in the assay on A549. Besides, in the assay on SK-MEL-2, the GI50 is 7.4 µM (inactive).
